The values below come from patent US6479530B2, “Imidazole derivatives having affinity for α2 receptors” (Orion Corporation, priority 1995, dated 2002).

For one test, the target named is α1-adrenoceptors. Briefly: Binding assay, displacement of 0.1 nM 3H-prazosin in rat neocortical membranes. To be noted: 30 min at 25° C., at least three independent experiments. The method, then:
(§1) Affinities for α2-adrenoceptors and α1-adrenoceptors were estimated by determining the displacement of 1 nM ^3H-RX821002 (α2) or 0.1 nM ^3H-prazosin (α1) from α-adrenoceptors in rat neocortical membranes. For this purpose membranes were incubated with different concentrations of test compounds spanning a concentration range of five orders of magnitude. Nonspecific binding was defined with 10 μM phentolamine. Membranes were used at a protein concentration of 2 mg/ml in a total volume of 250 μl. The incubation buffer consisted of 50 mM TRIS-HCl, pH 7.7. After a 30 min incubation at 25° C. samples were filtered through glass fibre filter and filters were washed three times with 4 ml icecold wash buffer consisting of 10 mM TRIS-HCl, pH 7.7. Filters were then dried, impregnated with a scintillation cocktail and counted in a scintillation counter. Experimental data was analyzed using the commercial nonlinear least squares computer program LIGAND.
(§2) Each compound was tested in at least three independent experiments for its affinity on rat neocortical α2- or α1-adrenoceptors.

Test [1] addresses T1, α2-adrenoceptors.
T1 construct: pKi α2; other: rat neocortical membranes, 1 nM 3H-RX821002, 30 min at 25° C., at least three independent experiments
Briefly: Binding assay, displacement of 1 nM 3H-RX821002 in rat neocortical membranes. To be noted: rat neocortical membranes, 1 nM 3H-RX821002, 30 min at 25° C., at least three independent experiments. How it is done: as §1, §2

Test [2] deals with α2-adrenoceptors. The test is described as above. The settings on record: ratio of affinities on rat neocortical α2- vs α1-adrenoceptors. The method, then:
as §1, §2

Consider `Cl.Oc1ccc2c(c1)C(Cc1c[nH]cn1)CC2` (stereo not drawn) [Compound 2, 3-(1H-Imidazol-4-ylmethyl)-indan-5-ol hydrochloride], for which the “pKi α1” value at α1-adrenoceptors was 6.61. For the same molecule, the “pKi α2” value at α2-adrenoceptors [1] is reported as 8.70. For the same molecule, the “alpha2 vs alpha1 selectivity” value in the test on α2-adrenoceptors [2] was 126.
For the molecule `Cl.Oc1ccc2c(c1)C(Cc1c[nH]cn1)CCC2` (stereo not drawn) [Compound 4, 8-(1H-Imidazol-4-ylmethyl)-5,6,7,8-tetrahydronaphthalen-2-ol hydrochloride], the “pKi α1” value at α1-adrenoceptors turned out to be 6.85. The “pKi α2” value on α2-adrenoceptors [1] stood at 7.39. Also, the “alpha2 vs alpha1 selectivity” value in the test on α2-adrenoceptors [2] is recorded as 3.
The matching figures for `Cc1cccc2c1CCC2c1c[nH]cn1.Cl` (stereo not drawn) [Compound 1, 4-(4-Methylindan-1-yl)-1H-imidazole hydrochloride]: 7.31, 8.44 and 14.
The matching figures for `Cc1cccc([C@H](C)c2cnc[nH]2)c1C` [Compound 5, dexmedetomidine, reference compound]: 6.48, 8.42 and 90.
The matching figures for `CC(c1c[nH]cn1)C1CCc2ccccc21.Cl` (stereo not drawn) [Compound 3, 4-[1-(Indan-1-yl)-ethyl]-1H-imidazole hydrochloride]: 6.21, 8.35 and 142.
